Experimental data as given in patent US6100281A, “Sulphonyloxadiazolones” (Bayer Aktiengesellschaft, priority 1997, dated 2000).

tested on: not listed separately; test: logP by HPLC (EEC Directive 79/831 Annex V. A8, gradient method); format: physicochemical; settings: acetonitrile/0.1% aqueous phosphoric acid
Description: In Table 1, Me represents methyl. The logP values were determined in accordance with EEC Directive 79/831 Annex V. A8 by HPLC (gradient method, acetonitrile/0.1% aqueous phosphoric acid).

SMILES	chromatographic logP
COc1ccc(Oc2noc(=O)n2S(=O)(=O)c2ccc(C)cc2)cc1 [Example 3]	3.34
Cc1ccc(S(=O)(=O)n2c(Oc3cc(C)ccc3C)noc2=O)cc1 [Example 4]	3.93
Cc1ccc(S(=O)(=O)n2c(Oc3ccc(F)cc3)noc2=O)cc1 [Example 6]	3.39
Cc1ccc(C)c(Oc2noc(=O)n2S(C)(=O)=O)c1 [Example 8]	2.7
Cc1ccc(S(=O)(=O)n2c(Oc3ccc(C)cc3C)noc2=O)cc1 [Example 9]	3.89
Cc1ccc(Oc2noc(=O)n2S(C)(=O)=O)c(C)c1 [Example 10]	2.73
Cc1ccc(Oc2noc(=O)n2S(=O)(=O)N(C)C)c(C)c1 [Example 12]	3.13
COc1ccc(Oc2noc(=O)n2S(=O)(=O)N(C)C)cc1 [Example 13]	2.5
CCS(=O)(=O)n1c(Oc2ccc(C)cc2C)noc1=O [Example 14]	2.95
CN(C)S(=O)(=O)n1c(Oc2ccc(Cl)cc2)noc1=O [Example 15]	2.94
Cc1ccc(Oc2noc(=O)n2S(=O)(=O)N(C)C)cc1C [Example 16]	3.15
CN(C)S(=O)(=O)n1c(Oc2ccccc2)noc1=O [Example 18]	2.48
CN(C)S(=O)(=O)n1c(Oc2ccc(F)cc2)noc1=O [Example 19]	2.58
Cc1cccc(Oc2noc(=O)n2S(=O)(=O)N(C)C)c1 [Example 20]	2.83
CN(C)S(=O)(=O)n1c(Oc2cccc(C(F)(F)F)c2)noc1=O [Example 21]	3.13
CN(C)S(=O)(=O)n1c(Oc2ccc(Cl)c(Cl)c2)noc1=O [Example 22]	3.37
COc1ccccc1Oc1noc(=O)n1S(=O)(=O)N(C)C [Example 23]	2.49
CCN(CC)S(=O)(=O)n1c(Oc2cccc(OC)c2)noc1=O [Example 28]	3.14
CCN(CC)S(=O)(=O)n1c(Oc2ccccc2C)noc1=O [Example 29]	3.33
Cc1cccc(Oc2noc(=O)n2S(=O)(=O)N(C)C)c1C [Example 30]	3.04
CCN(CC)S(=O)(=O)n1c(Oc2ccc(C)cc2C)noc1=O [Example 31]	3.72
Cc1cc(C)cc(Oc2noc(=O)n2S(=O)(=O)N(C)C)c1 [Example 32]	3.18
CCN(CC)S(=O)(=O)n1c(Oc2cc(C)cc(C)c2)noc1=O [Example 33]	3.75
COC(=O)c1cccc(Oc2noc(=O)n2S(=O)(=O)N(C)C)c1 [Example 34]	2.54
CCN(CC)S(=O)(=O)n1c(Oc2cc(C)ccc2C)noc1=O [Example 35]	3.7
CCN(CC)S(=O)(=O)n1c(Oc2cccc(C)c2C)noc1=O [Example 36]	3.64
CCN(CC)S(=O)(=O)n1c(Oc2cccc(C(=O)OC)c2)noc1=O [Example 37]	3.09

SMILES	chromatographic logP
CCN(CC)S(=O)(=O)n1c(Oc2ccc(Cl)cc2)noc1=O [Example 38]	3.53
CCN(CC)S(=O)(=O)n1c(Oc2ccccc2)noc1=O [Example 39]	3.06
COc1cccc(Oc2noc(=O)n2S(=O)(=O)N(C)C)c1OC [Example 40]	2.58
CCN(CC)S(=O)(=O)n1c(Oc2c(C)cccc2C)noc1=O [Example 42]	3.64
CCN(CC)S(=O)(=O)n1c(Oc2cccc(C)c2)noc1=O [Example 43]	3.42
CCN(CC)S(=O)(=O)n1c(Oc2ccc(OC)cc2)noc1=O [Example 44]	3.1
CCN(CC)S(=O)(=O)n1c(Oc2ccc(C)cc2)noc1=O [Example 45]	3.42
CCN(CC)S(=O)(=O)n1c(Oc2ccccc2OC)noc1=O [Example 46]	3.05
CN(C)S(=O)(=O)n1c(Oc2ccccc2F)noc1=O [Example 47]	2.55
CCN(CC)S(=O)(=O)n1c(Oc2cccc(C(F)(F)F)c2)noc1=O [Example 48]	3.68
CCN(CC)S(=O)(=O)n1c(Oc2cccc(OC)c2OC)noc1=O [Example 49]	3.15
CCN(CC)S(=O)(=O)n1c(Oc2ccc(F)cc2)noc1=O [Example 50]	3.16
CN(C)S(=O)(=O)n1c(Oc2ccc(Cl)cc2Cl)noc1=O [Example 51]	3.29
CN(C)S(=O)(=O)n1c(Oc2ccc(OC(F)(F)F)cc2)noc1=O [Example 52]	3.3
CN(C)S(=O)(=O)n1c(Oc2ccc(Oc3ccccc3)cc2)noc1=O [Example 53]	3.58
CCN(CC)S(=O)(=O)n1c(Oc2ccc(Oc3ccccc3)cc2)noc1=O [Example 54]	4.19
CN(C)S(=O)(=O)n1c(Oc2cccc(Cl)c2)noc1=O [Example 55]	2.95
CCN(CC)S(=O)(=O)n1c(Oc2cccc(Cl)c2)noc1=O [Example 56]	3.53
CN(C)S(=O)(=O)n1c(Oc2ccc3c(c2)CCC3)noc1=O [Example 57]	3.3
CCN(CC)S(=O)(=O)n1c(Oc2ccc3c(c2)CCC3)noc1=O [Example 58]	3.88
CCN(C)S(=O)(=O)n1c(Oc2ccc(Oc3ccccc3)cc2)noc1=O [Example 59]	3.83
CN(C)S(=O)(=O)n1c(Oc2ccc(-c3ccccc3)cc2)noc1=O [Example 60]	3.56
CN(C)S(=O)(=O)n1c(Oc2ccccc2-c2ccccc2)noc1=O [Example 61]	3.37
CCN(CC)S(=O)(=O)n1c(Oc2ccc(OC(F)(F)F)cc2)noc1=O [Example 62]	3.82
CCN(CC)S(=O)(=O)n1c(Oc2ccc(Cl)cc2Cl)noc1=O [Example 63]	3.88
CCN(C)S(=O)(=O)n1c(Oc2cc(C)ccc2C)noc1=O [Example 64]	3.42
COc1cccc(OC)c1Oc1noc(=O)n1S(=O)(=O)N(C)C [Example 65]	2.51

tested on: Phytophthora infestans; test: whole plant or invertebrate; format: in vivo; settings: in Solanum lycopersicum, 72 h, read-out: Efficacy

SMILES	pest or weed control at 100 g/ha [%]
Cc1ccc(C)c(Oc2noc(=O)n2S(=O)(=O)N(C)C)c1 [Example 1, N,N-dimethyl-3-(2,5-dimethylphenoxy)-5-oxo-[1,2,4]oxadiazole-4-sulphonamide]	99
CCS(=O)(=O)n1c(Oc2cc(C)ccc2C)noc1=O [Example 2, 3-(2,5-dimethylphenoxy)-4-ethanesulphonyl-4H-[1,2,4]oxadiazol-5-one]	95
Cc1ccc(Oc2noc(=O)n2S(C)(=O)=O)c(C)c1 [Example 10]	92
Cc1ccc(Oc2noc(=O)n2S(=O)(=O)N(C)C)c(C)c1 [Example 12]	97
COc1ccc(Oc2noc(=O)n2S(=O)(=O)N(C)C)cc1 [Example 13]	92
CCS(=O)(=O)n1c(Oc2ccc(C)cc2C)noc1=O [Example 14]	97
Cc1ccc(Oc2noc(=O)n2S(=O)(=O)N(C)C)cc1C [Example 16]	99
CN(C)S(=O)(=O)n1c(Oc2ccc(Br)cc2)noc1=O [Example 17]	94
CN(C)S(=O)(=O)n1c(Oc2ccccc2)noc1=O [Example 18]	95
